From PMC8323099 (Journal of Agricultural and Food Chemistry, 2021)

Target: T1, Pru p 1.0101 (Prunus persica, UniProt Q2I6V8)
T1 construct: gene ypr-10
Test: biochemical

T1 sequence (Q2I6V8 1-160): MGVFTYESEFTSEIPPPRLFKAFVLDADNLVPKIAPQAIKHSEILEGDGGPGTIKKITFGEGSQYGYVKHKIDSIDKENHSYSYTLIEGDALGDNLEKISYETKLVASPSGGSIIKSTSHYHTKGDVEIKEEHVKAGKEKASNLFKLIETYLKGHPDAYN

Kd: 1900 ± 400 µM
SMILES: C/C(=C\CNc1ncnc2[nH]cnc12)CO [trans-zeatin]
